Test results reported in patent publication US20240116910A1, “Heterocycles as WIP1 Inhibitors” (PMV Pharmaceuticals, Inc., priority 2022, published 2024).

Experiments:
[1] = target: recombinant His-tag Wip1(2-420) protein (amino acids #2-420) (Homo sapiens (Human), UniProt O15297); assay: Wip1(2-420) phosphatase enzyme FDP assay; format: biochemical; conditions: fluorescein diphosphate (FDP) substrate, RT 2 hours, fluorescence Ex485/Em535; read-out: WIP1 (Truncated 2-420) FDP Assay: IC50
[2] = target: recombinant His-tag Wip1 full length protein (amino acids #1-605) (Homo sapiens (Human), UniProt O15297); assay: Wip1 full length phosphatase enzyme FDP assay; format: biochemical; conditions: fluorescein diphosphate (FDP) substrate, RT 2 hours, fluorescence Ex485/Em535
Chain of recombinant His-tag Wip1 full length protein (amino acids #1-605) (O15297 whole entry, the tested form may be a part): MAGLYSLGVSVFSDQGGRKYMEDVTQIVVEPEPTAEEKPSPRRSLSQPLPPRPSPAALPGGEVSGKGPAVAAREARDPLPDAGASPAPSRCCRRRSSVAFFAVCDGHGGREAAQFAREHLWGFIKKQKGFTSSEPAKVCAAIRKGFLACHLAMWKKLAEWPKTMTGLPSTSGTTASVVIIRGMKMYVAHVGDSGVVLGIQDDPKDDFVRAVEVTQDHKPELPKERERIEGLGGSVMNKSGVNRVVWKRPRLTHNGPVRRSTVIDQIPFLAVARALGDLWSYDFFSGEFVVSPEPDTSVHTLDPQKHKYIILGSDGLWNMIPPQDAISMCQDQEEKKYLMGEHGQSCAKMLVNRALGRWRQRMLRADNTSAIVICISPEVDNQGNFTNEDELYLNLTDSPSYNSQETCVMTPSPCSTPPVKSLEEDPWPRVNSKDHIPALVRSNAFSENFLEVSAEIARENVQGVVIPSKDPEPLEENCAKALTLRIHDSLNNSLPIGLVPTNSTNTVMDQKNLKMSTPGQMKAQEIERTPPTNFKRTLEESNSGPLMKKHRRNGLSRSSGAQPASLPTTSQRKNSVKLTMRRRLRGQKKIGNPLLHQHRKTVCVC
Experimental: The Human Wip1 (2-420, aa 2-420) or Wip1 full length (aa 1-605) DNA sequence was codon optimized and synthesized by Genscript for insect cell expression. The open reading frame of Wip1(2-420) with a N-terminal-His6 affinity tag followed by a TEV cleavage site was subcloned sites into the pFastBac1 expression vector. The recombinant bacmid DNA was transfected in Sf9 insect cells for baculovirus production. After 72 hours infection, the Sf9 cells were harvested by centrifugation and resuspended in lysis buffer containing 50 mM Tris/HCl, pH 8.0, 500 mM NaCl, 20% glycerol, Benzonase 0.5% CHAPS and Roche cOmplete™ EDTA free protease inhibitors. Cells were disrupted with microfluidizer and the debris was removed by centrifugation at 185,000 g for 1 hour. The supernatant was subjected to HisTrap FF for affinity purification. Proteins were eluted with a linear gradient of 0-500 mM imidazole in HisTrap buffer containing 50 mM Tris/HCl, pH 8.0, 500 mM NaCl and 20% glycerol, 0.05% CHAPS. The eluted protein was dialyzed against dialysis buffer (20 mM MES, 100 mM NaCl, 20% glycerol, 0.5 mM TCEP, 0.05% CHAPS) followed purification via HiTrap SP HP column. The protein was eluted with a gradient of 100 mM-2 M NaCl in dialysis buffer. His6-[…] was finally concentrated and loaded onto a size-exclusion column (NiLoad 16/600 Superdex 200 pg, GE Healthcare) pre-equilibrated with 50 mM MOPS (pH 7.5), 200 mM NaCl, 20% glycerol, 1 mM TCEP, 0.05% CHAPS and 0.1 mM EGTA. The peak fractions containing purified Nis6-Wip1(2-420) were pooled and concentrated to 1.0 mg/mL and flash frozen at −80° C.
Wip1 Length and Wip1(2-420) Phosphatase Enzyme FDP Assays.
Test compounds (252 mM stock in DMSO) were diluted 3 folds in series in DMSO and 1.2 μl per well were added into 384-well polypropylene black plates (Nunc). Twelve μl per well of Assay Buffer (100 mM NaCl, 50 mM MOPS, pH 7.5, 0.8 mM CHAPS, 0.1 mM EGTA, 30 mM MgCl2, 0.3 mM TCEP, 0.2 mg/mL BSA) was added followed by […] per well of 50.4 nM recombinant His-tag Wip1 full length protein (amino acids #1-605) or recombinant His-tag Wip1(2-420) protein (amino acids #2-420) in Assay Buffer and the plate was incubated at RT (22° C.) for 5 min. Ten mM of fluorescein diphosphate (FDP) in DMSO was diluted to […] in Assay Buffer and […] per well was added to the plate and incubated at RT (22° C.) for 2 hours. […] per well of 64.1 mM EDTA in water were added to stop the enzyme reaction. The plate was centrifuged at 1,200 rpm (Eppendorf 5810R Plate centrifuge) for 1 minute and fluorescence intensity (Ex485/Em535) was measured on Perkin Elmer Victor Reader. EC50 values were calculated using either Prism (GraphPad) or ActivityBase software (IDBS), The IC50 results are provided in Table M.

Chain of recombinant His-tag Wip1(2-420) protein (amino acids #2-420) (O15297 2-420): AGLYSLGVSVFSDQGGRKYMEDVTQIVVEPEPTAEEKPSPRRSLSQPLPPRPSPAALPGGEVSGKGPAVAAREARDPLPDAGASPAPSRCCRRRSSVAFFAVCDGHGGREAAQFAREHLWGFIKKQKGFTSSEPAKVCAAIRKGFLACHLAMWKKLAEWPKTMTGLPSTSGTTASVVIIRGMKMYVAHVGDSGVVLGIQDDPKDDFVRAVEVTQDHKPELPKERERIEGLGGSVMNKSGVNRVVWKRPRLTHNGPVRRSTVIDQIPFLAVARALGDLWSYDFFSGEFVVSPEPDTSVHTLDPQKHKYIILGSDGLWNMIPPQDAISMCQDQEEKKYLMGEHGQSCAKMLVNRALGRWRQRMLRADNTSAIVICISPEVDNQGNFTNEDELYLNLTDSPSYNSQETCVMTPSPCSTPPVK

Row | Structure (SMILES) | IC50 [1] | IC50 [2]
1 | Cc1ncc(Cl)cc1N[C@H](C)c1ccc(C(=O)N[C@@H](CC2CCCC2)C(=O)N[C@H]2CC2(F)F)s1 [Compound 21, (2S)-2-({5-[(1R)-1-[(5-chloro-2-methylpyridin-3-yl)amino]ethyl]thiophen-2-yl}formamido)-3-cyclopentyl-N-[(1S)-2,2-difluorocyclopropyl]propanamide] | 109 nM | 139 nM
2 | Cc1ncc(Cl)cc1N[C@@H](C)c1ccc(C(=O)N[C@@H](CC2CCCC2)C(=O)N[C@@H]2CC2(F)F)s1 [Compound 24, (2S)-2-({5-[(1S)-1-[(5-chloro-2-methylpyridin-3-yl)amino]ethyl]thiophen-2-yl}formamido)-3-cyclopentyl-N-[(1R)-2,2-difluorocyclopropyl]propanamide] | 8 nM | 8 nM
3 | Cc1ncc(Cl)cc1N[C@@H](C)c1ccc(C(=O)N[C@@H](CC2CCCC2)C(=O)NC2CCC(F)(F)C2)s1 (stereo partly drawn) [Compound 26, (2S)-2-({5-[(1S)-1-[(5-chloro-2-methylpyridin-3-yl)amino]ethyl]thiophen-2-yl}formamido)-3-cyclopentyl-N-(3,3-difluorocyclopentyl)propanamide] | 7 nM | 9 nM
4 | Cc1ncc(Cl)cc1N[C@@H](C)c1ccc(C(=O)N[C@@H](CC2CCCC2)C(=O)NC23CC(C#N)(C2)C3)s1 [Compound 31, (2S)-2-({5-[(1S)-1-[(5-chloro-2-methylpyridin-3-yl)amino]ethyl]thiophen-2-yl}formamido)-N-{3-cyanobicyclo[1.1.1]pentan-1-yl}-3-cyclopentylpropanamide] | 10 nM | 16 nM
5 | Cc1ncc(Cl)cc1N[C@@H](C)c1ccc(C(=O)N[C@@H](CC2CCCC2)C(=O)NC2CCN(C)CC2)s1 [Compound 32, (2S)-2-({5-[(1S)-1-[(5-chloro-2-methylpyridin-3-yl)amino]ethyl]thiophen-2-yl}formamido)-3-cyclopentyl-N-(1-methylpiperidin-4-yl)propanamide] | 48 nM | 73 nM
6 | Cc1ncc(Cl)cc1N[C@@H](C)c1ccc(C(=O)N[C@@H](CC2CCCC2)C(=O)NC2CC(C#N)C2)s1 (stereo partly drawn) [Compound 33, (2S)-2-({5-[(1S)-1-[(5-chloro-2-methylpyridin-3-yl)amino]ethyl]thiophen-2-yl}formamido)-N-(3-cyanocyclobutyl)-3-cyclopentylpropanamide] | 8 nM | 11 nM
7 | Cc1ncc(Cl)cc1N[C@@H](C)c1ccc(C(=O)N[C@@H](CC2CCCC2)C(=O)NC2(C#N)CC2)s1 [Compound 34, (2S)-2-({5-[(1S)-1-[(5-chloro-2-methylpyridin-3-yl)amino]ethyl]thiophen-2-yl}formamido)-N-(1-cyanocyclopropyl)-3-cyclopentylpropanamide] | 17 nM | 34 nM
8 | COc1ncc(Cl)cc1N[C@H](C)c1ccc(C(=O)N[C@@H](CC2CCCC2)C(=O)N[C@@H]2CC2(F)F)s1 [Compound 36, (2S)-2-({5-[(1R)-1-[(5-chloro-2-methoxypyridin-3-yl)amino]ethyl]thiophen-2-yl}formamido)-3-cyclopentyl-N-[(1R)-2,2-difluorocyclopropyl]propanamide] | 8 nM | 10 nM
9 | CC[C@H](Nc1cc(Cl)cnc1C)c1ccc(C(=O)N[C@@H](CC2CCCC2)C(=O)NC2CC2)s1 [Compound 37, (2S)-2-({5-[(1S)-1-[(5-chloro-2-methylpyridin-3-yl)amino]propyl]thiophen-2-yl}formamido)-3-cyclopentyl-N-cyclopropylpropanamide] | 6 nM | 9 nM
10 | COc1ncc(Cl)cc1N[C@@H](C)c1ccc(C(=O)N[C@@H](CC2CCCC2)C(=O)NC2CC2)s1 [Compound 38, (2S)-2-({5-[(1S)-1-[(5-chloro-2-methoxypyridin-3-yl)amino]ethyl]thiophen-2-yl}formamido)-3-cyclopentyl-N-cyclopropylpropanamide] | 7 nM | 9 nM
11 | CC[C@@H](Nc1cc(Cl)cnc1C)c1ccc(C(=O)N[C@@H](CC2CCCC2)C(=O)NC2CC2)s1 [Compound 39, (2S)-2-({5-[(1R)-1-[(5-chloro-2-methylpyridin-3-yl)amino]propyl]thiophen-2-yl}formamido)-3-cyclopentyl-N-cyclopropylpropanamide] | 122 nM | 332 nM
12 | COc1ncc(Cl)cc1N[C@@H](C)c1ccc(C(=O)N[C@@H](CC2CCCC2)C(=O)N[C@@H]2CC2(F)F)s1 [Compound 40, (2S)-2-({5-[(1S)-1-[(5-chloro-2-methoxypyridin-3-yl)amino]ethyl]thiophen-2-yl}formamido)-3-cyclopentyl-N-[(1R)-2,2-difluorocyclopropyl]propanamide] | 149 nM | 181 nM

Now from value to compound:

Row | IC50 [1] | IC50 [2] | Structure (SMILES)
13 | 5 nM | 8 nM | Cc1ncc(Cl)cc1N[C@@H](C)c1ccc(C(=O)N[C@@H](CC2CCCC2)C(=O)N[C@H]2CC2(F)F)s1 [Compound 23, (2S)-2-({5-[(1S)-1-[(5-chloro-2-methylpyridin-3-yl)amino]ethyl]thiophen-2-yl}formamido)-3-cyclopentyl-N-[(1S)-2,2-difluorocyclopropyl]propanamide]
14 | 5 nM | 8 nM | Cc1ncc(Cl)cc1N[C@@H](C)c1ccc(C(=O)N[C@@H](CC2CCCC2)C(=O)NC2CC(F)(F)C2)s1 [Compound 25, (2S)-2-({5-[(1S)-1-[(5-chloro-2-methylpyridin-3-yl)amino]ethyl]thiophen-2-yl}formamido)-3-cyclopentyl-N-(3,3-difluorocyclobutyl)propanamide]
15 | 6 nM | 10 nM | Cc1ncc(Cl)cc1N[C@@H](C)c1ccc(C(=O)N[C@@H](CC2CCCC2)C(=O)NC2COC2)s1 [Compound 27, (2S)-2-({5-[(1S)-1-[(5-chloro-2-methylpyridin-3-yl)amino]ethyl]thiophen-2-yl}formamido)-3-cyclopentyl-N-(oxetan-3-yl)propanamide]
16 | 4 nM | 7 nM | Cc1ncc(Cl)cc1N[C@@H](C)c1ccc(C(=O)N[C@@H](CC2CCCC2)C(=O)N[C@H]2C[C@@H](F)C2)s1 [Compound 28, (2S)-2-({5-[(1S)-1-[(5-chloro-2-methylpyridin-3-yl)amino]ethyl]thiophen-2-yl}formamido)-3-cyclopentyl-N-[(1s,3s)-3-fluorocyclobutyl]propanamide]
17 | 3 nM | 7 nM | Cc1ncc(Cl)cc1N[C@@H](C)c1ccc(C(=O)N[C@@H](CC2CCCC2)C(=O)N[C@H]2C[C@H](F)C2)s1 [Compound 29, (2S)-2-({5-[(1S)-1-[(5-chloro-2-methylpyridin-3-yl)amino]ethyl]thiophen-2-yl}formamido)-3-cyclopentyl-N-[(1r,3r)-3-fluorocyclobutyl]propanamide]
18 | 6 nM | 10 nM | Cc1ncc(Cl)cc1N[C@@H](C)c1ccc(C(=O)N[C@@H](CC2CCCC2)C(=O)N[C@@H]2C[C@@H]2F)s1 [Compound 30, (2S)-2-({5-[(1S)-1-[(5-chloro-2-methylpyridin-3-yl)amino]ethyl]thiophen-2-yl}formamido)-3-cyclopentyl-N-[(1R,2S)-2-fluorocyclopropyl]propanamide]
19 | 5 nM | 7 nM | Cc1ncc(Cl)cc1N[C@@H](C)c1ccc(C(=O)N[C@@H](CC2CCCC2)C(=O)Nc2cccc(S(C)(=O)=O)c2)s1 [Compound 41, (2S)-2-({5-[(1S)-1-[(5-chloro-2-methylpyridin-3-yl)amino]ethyl]thiophen-2-yl}formamido)-3-cyclopentyl-N-(3-methanesulfonylphenyl)propanamide]
